The text below walks through data of patent US5856506A, “Phosphatase inhibitors and methods of use thereof” (University of Pittsburgh, priority 1997, dated 1999).

Test [1] has as its system Recombinant human CDC25B. The test can be described thus: CDC25B phosphatase assay, GST fusion protein, fluorescein diphosphate. It is filed as biochemical. The conditions noted are these: none = 100; 1 hour preincubation; concentration not given (0.3-100 μM tested). As for the experimental part: The compounds of the present invention are also capable of inhibiting dual specificity phosphatases, for example CDC25A and CDC25B. Phosphatases CDC25A and CDC25B are disclosed in U.S. Pat. No. 5,441,880. Inhibition of dual specificity phosphatases is defined herein as inhibition of the activity of CDC25A and/or CDC25B at a concentration of 100 μM of the inhibitor compound. In a preferred embodiment, the activity of the phosphatase is inhibited by at least 10%. In more preferred embodiments, the activity of the phophatase is inhibited by at least 25%, or even more preferably, by at least 50%. The ability of the compounds of the present invention to inhibit the phosphatases can be determined by measuring the effect of the compounds on the ability of CDC25 or CDC25B to dephosphorylate a substrate. Appropriate methods are known to those of ordinary skill in the art, and include, for example, calorimetric assays. A suitable assay is described in U.S. Pat. No. 5,441,880, the disclosure of which is incorporated herein by reference. […] The assay may be performed as a rapid calorimetric microtitration plate assay.
Compounds 1a-1r were assessed for ability to inhibit CDC25A and CDC25B activity. Recombinant human CDC25A and CDC25B were obtained as a glutahione-S-transferase (GST) fusion protein using human cDNA and standard molecular biological methods. The cDNA constructs are in a plasmid that is expressed in E. coli under the control of isopropyl-beta-D-[…] (IPTG). The bacterial pellet was disrupted by sonication, and centrifuged at 10,000×g. Using glutathione-agarose beads, the fusion protein was purified from postmicrosomal supernant fraction as described by Baratte et al. (1992) Anticancer Res. 12: 873-880. Phosphatase activity was assayed with a spectrofluorimeter under the following conditions: 1 unit (1 U=amount of protein that induces 33 fluoresence units/minute of product) of fusion protein in a final incubation mixture (150 μL) comprised of 25 mM Tris (pH=8.0), 5 mM EDTA, 33 μg/ml BSA, and 20 μM fluorescein diphosphate in 96-well microtiter plates. Plates were preincubated for 1 hour with 0 (control), 0.3, 1, 3, 10, 30, 100 μM compounds at room temperature. After the 1 hour incubation at room temperature, fluorescence of the fluorescein product (Ex. 485 nm; Em. 530 nm) were measured with a Biosystems Cytofluor II (Framingham, Mass.).

The test system of test [2] is MDA-MB-231 cells. The test can be described thus: Cell cycle distribution by flow cytometry (propidium iodide). It is filed as cell-based, human. The settings on record: for cell cycle distribution: 88 μM, MDA-MB-231. The source says:
FIGS. 10A-D depict cell cycle distribution of human breast cancer cells after treatment with compound 1f determined by flow cytometry. […] Fluorescence channel measures intracellular propidium iodide concentration, an index of DNA content. Horizontal bars are the gating positions that allow for cell cycle analysis. […] Open bars are control cells and black bars are cells treated with compound 1f. […] The mean values were obtained from three independent determinations. Open bars are control cells and black bars are cells treated with 88 μM compound 1f.
MDA-MB-231 cells (6.5×10^5 /cm^2) were plated and incubated at 37° C. for 48 h. The plating medium was then aspirated off, and medium containing a concentration of compound 1f that caused approximately 50% growth inhibition (88-100 μM) was added for 48 to 72 h. Untreated cells at a similar cell density were used as control populations. Single cell preparations were fixed in ice-cold 1% paraformaldehyde, centrifuged at 1,000×g for 5 min, resuspended in Puck's saline, centrifuged, and resuspended in ice-cold 70% ethanol overnight. The cells were removed from fixatives by centrifugation (1,000×g for 5 min) and stained with a 5 μg/mL propidium iodide and 50 μg/mL RNase A solution. Flow cytometry analyses were conducted with a Becton Dickinson FACS Star. Single parameter DNA histograms were collected for 10,000 cells, and cell cycle kinetic parameters calculated using DNA cell cycle analysis software version C (Becton Dickinson). Experiments at 72 h were performed at least 3 independent times.

With `CCCCCCCCCC(=O)NC(CCC(=O)N(CCNC(=O)c1nc(-c2ccccc2)oc1-c1ccccc1)Cc1ccccc1)C(=O)O` (stereo not shown) [Compound 1f], in test [1], the “CDC25B activity remaining, percent of control” value is reported as 15%. Also, the cell cycle distribution entry in test [2] (48 h) is “prominent accumulation in the Gi phase with a concomitant decrease in both S and G2/M phases”; in test [2] (72 h) it was “prominent accumulation in the G1 phase”. Further, the “site of blockage in cell cycle progression” value in test [2] (MDA-MB-231, conclusion) is listed as “blockage in cell cycle progression is at the G1 checkpoint”.
